# Literature values in publication PMC8891573, “Dysregulation of the Nitric Oxide/Dimethylarginine Pathway in Hypoxic Pulmonary Vasoconstriction—Molecular Mechanisms and Clinical Significance” (Frontiers in Medicine, 2022).
# Read-outs that look alike come from different tables or passages of the source.
# Tests used:
# [1] = system: eNOS; conditions: for effect on NOS activity: competition with L-arginine for the NOS catalytic site
# [2] = system: CAT-2; set-up: method as in PMID 28684763, PMID 9701046
# [3] = system: ETA and ETB receptors; set-up: method as in PMID 8847282, PMID 8873714, PMID 20415698; conditions: animal models and clinical studies
# [4] = inhaled NO, small trials
# [5] = system: mice; set-up: method as in PMID 17068215; conditions: acute HX exposure, HC or SC mice, i.p. injection of ADMA
# [6] = set-up: method as in PMID 9799202
# [7] = system: mouse lungs; set-up: method as in PMID 19648472; conditions: oral L-arginine treatment
# [8] = system: isolated aortic rings; set-up: method as in PMID 2870025
compound,measurement,setting,value
"CN=C(NC)NCCC[C@H](N)C(=O)O [SDMA, symmetric dimethylarginine]",effect on NOS activity,[1],unable to directly interfere with NOS activity
same,"inhibition of CAT-2, cellular uptake transporter for L-arginine",[2],may inhibit
COc1ccccc1Oc1c(NS(=O)(=O)c2ccc(C(C)(C)C)cc2)nc(-c2ncccn2)nc1OCCO [bosentan],effect on HPV,[3],variable effects
Nitric oxide [NO],effects on COVID-19-associated hypoxaemia and outcome,[4],inconclusive
"CN(C)C(N)=NCCC[C@H](N)C(=O)O [ADMA, asymmetric dimethylarginine]",inhibition of eNOS,[1],competitive inhibitor
same,effect on NOS activity,[1],competitively inhibits NOS activity
same,"inhibition of CAT-2, cellular uptake transporter for L-arginine",[2],may inhibit
same,HX survival time,[5],ADMA increased HX survival time in HC and in SC mice; the effect was mediated by regulation of eNOS activity
N=C(N)NCCC[C@H](N)C(=O)O [L-arginine],reversal of impaired NO generation and endothelial dysfunction due to elevated ADMA,[6],reversible
same,"PRMT2, DDAH2, ADMA and nitrotyrosine changes in ovalbumin-treated mice",[7],"PRMT2 ↑ and DDAH2 ↓ in ovalbumin-treated mice, along with ↑ ADMA and ↑ nitrotyrosine; Reversal with oral L-arginine treatment"
CC(=O)OCC[N+](C)(C)C [acetylcholine],vascular response of aortic rings,[8]; Wistar rats,endothelium-dependent vasodilation
same,vascular response of aortic rings,[8]; spontaneously hypertensive rats (SHR),vasoconstriction
